Laboratory results from PubChem BioAssay AID2060626 (Molecular Pharmacology Branch, DTP, NCI, 2025).
Where “and” joins values, the source holds several entries; their conditions need not be identical. Equal entries are not always repeated. One block for each compound: values may come before it.

Test system: 168753-222-R-J1-PDC complex spheroid viability
Assay: Anticancer human tumor 168753-222-R-J1-PDC patient-derived bladder carcinoma cell line growth inhibition [CLK]
Conditions: for viability, T/C: stronger effect = lower value
Outline: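 Multi-cell-type spheroids combined patient-derived tumor cells with HUVEC endothelial cells and human mesenchymal stem cells. Paired agents were dosed in half-log steps down from about clinical Cmax, or from 10 microM where Cmax was unknown.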

[1] = curve of first compound, second compound 0.0316 µM
[2] = curve of first compound, second compound 0.1 µM
[3] = curve of first compound, second compound 0.316 µM
[4] = curve of first compound, second compound 1 µM
[5] = curve of first compound, second compound 3.16 µM
[6] = curve of first compound, second compound 10 µM
[7] = second compound 0.0316 µM, first compound 0.0316 µM
[8] = second compound 0.0316 µM, first compound 0.1 µM
[9] = second compound 0.0316 µM, first compound 0.316 µM
[10] = second compound 0.0316 µM, first compound 1 µM
[11] = second compound 0.0316 µM, first compound 3.16 µM
[12] = second compound 0.0316 µM, first compound 10 µM
[13] = second compound 0.1 µM, first compound 0.0316 µM
[14] = second compound 0.1 µM, first compound 0.1 µM
[15] = second compound 0.1 µM, first compound 0.316 µM
[16] = second compound 0.1 µM, first compound 1 µM
[17] = second compound 0.1 µM, first compound 3.16 µM
[18] = second compound 0.1 µM, first compound 10 µM
[19] = second compound 0.316 µM, first compound 0.0316 µM
[20] = second compound 0.316 µM, first compound 0.1 µM
[21] = second compound 0.316 µM, first compound 0.316 µM
[22] = second compound 0.316 µM, first compound 1 µM
[23] = second compound 0.316 µM, first compound 3.16 µM
[24] = second compound 0.316 µM, first compound 10 µM
[25] = second compound 1 µM, first compound 0.0316 µM
[26] = second compound 1 µM, first compound 0.1 µM
[27] = second compound 1 µM, first compound 0.316 µM
[28] = second compound 1 µM, first compound 1 µM
[29] = second compound 1 µM, first compound 3.16 µM
[30] = second compound 1 µM, first compound 10 µM
[31] = second compound 3.16 µM, first compound 0.0316 µM
[32] = second compound 3.16 µM, first compound 0.1 µM
[33] = second compound 3.16 µM, first compound 0.316 µM
[34] = second compound 3.16 µM, first compound 1 µM
[35] = second compound 3.16 µM, first compound 3.16 µM
[36] = second compound 3.16 µM, first compound 10 µM
[37] = second compound 10 µM, first compound 0.0316 µM
[38] = second compound 10 µM, first compound 0.1 µM
[39] = second compound 10 µM, first compound 0.316 µM
[40] = second compound 10 µM, first compound 1 µM
[41] = second compound 10 µM, first compound 3.16 µM
[42] = second compound 10 µM, first compound 10 µM
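Note: viability measured after seven days of drug exposure.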
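Throughout, for viability, T/C: luminescence signal used as surrogate for viable cell amount; 100% = DMSO vehicle control wells.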

IC50 (curve of compound): > 100 nM
SMILES: Cn1ncnc1[C@H]1c2n[nH]c(=O)c3cc(F)cc(c23)N[C@@H]1c1ccc(F)cc1
viability, T/C (compound 0.000316 µM): 82.2% and 103% | viability, T/C (compound 0.001 µM): 97% and 99.6% | viability, T/C (compound 0.00316 µM): 70% and 106% | viability, T/C (compound 0.01 µM): 87.6% and 108% | viability, T/C (compound 0.0316 µM): 74.9% and 108% | viability, T/C (compound 0.1 µM): 55.2% and 91.6%

IC50 [1]: 5880 nM | IC50 [2]: 5460 nM | IC50 [3]: 4110 nM | IC50 [4]: < 31.6 nM | IC50 [5]: < 31.6 nM | IC50 [6]: < 31.6 nM
SMILES: Nc1ccccc1NC(=O)c1ccc(CNC(=O)OCc2cccnc2)cc1 + CNC(=O)c1ccc(Nc2nc(OC3CCCC3)c3c(-c4ccc5nc(C)oc5c4)c[nH]c3n2)c(OC)c1
viability, T/C [7]: 99.1% | viability, T/C [8]: 101% | viability, T/C [9]: 90.6% | viability, T/C [10]: 90.6% | viability, T/C [11]: 84.4% | viability, T/C [12]: 21.6% | viability, T/C [13]: 98.8% | viability, T/C [14]: 84.8% | viability, T/C [15]: 85.8% | viability, T/C [16]: 82.9% | viability, T/C [17]: 81.2% | viability, T/C [18]: 15.4% | viability, T/C [19]: 80% | viability, T/C [20]: 68.7% | viability, T/C [21]: 62.2% | viability, T/C [22]: 78.3% | viability, T/C [23]: 63.1% | viability, T/C [24]: 6.28% | viability, T/C [25]: 33.9% | viability, T/C [26]: 39% | viability, T/C [27]: 36.5% | viability, T/C [28]: 41.4% | viability, T/C [29]: 44.7% | viability, T/C [30]: 4.99% | viability, T/C [31]: 27.1% | viability, T/C [32]: 22.3% | viability, T/C [33]: 29.8% | viability, T/C [34]: 41.7% | viability, T/C [35]: 25.7% | viability, T/C [36]: 3.07% | viability, T/C [37]: 19.5% | viability, T/C [38]: 21% | viability, T/C [39]: 28.1% | viability, T/C [40]: 27.5% | viability, T/C [41]: 21.1% | viability, T/C [42]: 0.71%

IC50 (curve of compound): 1100 nM and 2930 nM
SMILES: COC1C=CCC(C)C(C)S(=O)(=O)NC(=O)c2ccc3c(c2)N(CC2CCC21)CC1(CCCc2cc(Cl)ccc21)CO3 (configuration not stated)
viability, T/C (compound 0.0316 µM): 88.5% and 107% | viability, T/C (compound 0.1 µM): 98.9% and 95.5% | viability, T/C (compound 0.316 µM): 61.2% and 104% | viability, T/C (compound 1 µM): 53.9% and 76% | viability, T/C (compound 3.16 µM): 35.8% and 49.4% | viability, T/C (compound 10 µM): 20.4% and 19%

IC50 [1]: > 10000 nM | IC50 [2]: > 10000 nM | IC50 [3]: > 10000 nM | IC50 [4]: < 31.6 nM | IC50 [5]: < 31.6 nM | IC50 [6]: < 31.6 nM
SMILES: C=CC(=O)N1CCN(c2nc(=O)n(-c3c(C)ccnc3C(C)C)c3nc(-c4c(O)cccc4F)c(F)cc23)C(C)C1 (configuration not stated) + CNC(=O)c1ccc(Nc2nc(OC3CCCC3)c3c(-c4ccc5nc(C)oc5c4)c[nH]c3n2)c(OC)c1
viability, T/C [7]: 107% | viability, T/C [8]: 96.7% | viability, T/C [9]: 111% | viability, T/C [10]: 128% | viability, T/C [11]: 117% | viability, T/C [12]: 113% | viability, T/C [13]: 104% | viability, T/C [14]: 98.5% | viability, T/C [15]: 97.5% | viability, T/C [16]: 107% | viability, T/C [17]: 102% | viability, T/C [18]: 95.2% | viability, T/C [19]: 85.7% | viability, T/C [20]: 83.5% | viability, T/C [21]: 74.8% | viability, T/C [22]: 78.3% | viability, T/C [23]: 94.1% | viability, T/C [24]: 82.2% | viability, T/C [25]: 51.7% | viability, T/C [26]: 35.4% | viability, T/C [27]: 45.4% | viability, T/C [28]: 47.8% | viability, T/C [29]: 41.4% | viability, T/C [30]: 30.9% | viability, T/C [31]: 23.3% | viability, T/C [32]: 25.6% | viability, T/C [33]: 26.6% | viability, T/C [34]: 26.3% | viability, T/C [35]: 30.4% | viability, T/C [36]: 19.4% | viability, T/C [37]: 18.8% | viability, T/C [38]: 23.5% | viability, T/C [39]: 20.9% | viability, T/C [40]: 24.5% | viability, T/C [41]: 19.4% | viability, T/C [42]: 16.4%

More lines, now with the values behind:

SMILES: O=C(c1cc(Cc2n[nH]c(=O)c3ccccc23)ccc1F)N1CCN(C(=O)C2CC2)CC1 + CN1CCN(c2cc(C(=O)Nc3cc4cc(-c5cnn(C)c5)ccc4cn3)ccn2)CC1
IC50 [1]: > 10000 nM | IC50 [2]: 424 nM | IC50 [3]: < 31.6 nM | IC50 [4]: < 31.6 nM | IC50 [5]: < 31.6 nM | IC50 [6]: < 31.6 nM | viability, T/C [7]: 73.3% | viability, T/C [8]: 75.6% | viability, T/C [9]: 72.5% | viability, T/C [10]: 88.2% | viability, T/C [11]: 73.6% | viability, T/C [12]: 77.8% | viability, T/C [13]: 45.6% | viability, T/C [14]: 67.2% | viability, T/C [15]: 52.5% | viability, T/C [16]: 40.3% | viability, T/C [17]: 31.5% | viability, T/C [18]: 40.1% | viability, T/C [19]: 10.2% | viability, T/C [20]: 8.85% | viability, T/C [21]: 8.61% | viability, T/C [22]: 7.84% | viability, T/C [23]: 9.11% | viability, T/C [24]: 10.2% | viability, T/C [25]: 0.19% | viability, T/C [26]: 0.34% | viability, T/C [27]: 0.16% | viability, T/C [28]: 0.63% | viability, T/C [29]: 0.66% | viability, T/C [30]: 0.35% | viability, T/C [31]: 0.24% | viability, T/C [32]: 0.12% | viability, T/C [33]: 0.18% | viability, T/C [34]: 0.08% | viability, T/C [35]: 0.96% | viability, T/C [36]: 0.39% | viability, T/C [37]: 0.6% | viability, T/C [38]: 0.32% | viability, T/C [39]: 0.35% | viability, T/C [40]: 0.18% | viability, T/C [41]: 0.41% | viability, T/C [42]: 1.31%

SMILES: Cn1ncnc1[C@H]1c2n[nH]c(=O)c3cc(F)cc(c23)N[C@@H]1c1ccc(F)cc1 + CN1CCN(c2cc(C(=O)Nc3cc4cc(-c5cnn(C)c5)ccc4cn3)ccn2)CC1
IC50 [1]: > 100 nM | IC50 [2]: 4.08 nM | IC50 [3]: < 0.316 nM | IC50 [4]: < 0.316 nM | IC50 [5]: < 0.316 nM | IC50 [6]: < 0.316 nM | viability, T/C (second compound 0.0316 µM, first compound 0.000316 µM): 90.2% | viability, T/C (second compound 0.0316 µM, first compound 0.001 µM): 95.1% | viability, T/C (second compound 0.0316 µM, first compound 0.00316 µM): 70.5% | viability, T/C (second compound 0.0316 µM, first compound 0.01 µM): 101% | viability, T/C [7]: 97.9% | viability, T/C [8]: 58.2% | viability, T/C (second compound 0.1 µM, first compound 0.000316 µM): 58.7% | viability, T/C (second compound 0.1 µM, first compound 0.001 µM): 72.5% | viability, T/C (second compound 0.1 µM, first compound 0.00316 µM): 54.7% | viability, T/C (second compound 0.1 µM, first compound 0.01 µM): 18.7% | viability, T/C [13]: 25.8% | viability, T/C [14]: 56% | viability, T/C (second compound 0.316 µM, first compound 0.000316 µM): 9.67% | viability, T/C (second compound 0.316 µM, first compound 0.001 µM): 9.41% | viability, T/C (second compound 0.316 µM, first compound 0.00316 µM): 8.77% | viability, T/C (second compound 0.316 µM, first compound 0.01 µM): 7.96% | viability, T/C [19]: 8.57% | viability, T/C [20]: 8.4% | viability, T/C (second compound 1 µM, first compound 0.000316 µM): 0.18% | viability, T/C (second compound 1 µM, first compound 0.001 µM): 0.28% | viability, T/C (second compound 1 µM, first compound 0.00316 µM): 0.18% | viability, T/C (second compound 1 µM, first compound 0.01 µM): 0.53% | viability, T/C [25]: 0.24% | viability, T/C [26]: 0.51% | viability, T/C (second compound 3.16 µM, first compound 0.000316 µM): 1.24% | viability, T/C (second compound 3.16 µM, first compound 0.001 µM): 0.1% | viability, T/C (second compound 3.16 µM, first compound 0.00316 µM): 0.18% | viability, T/C (second compound 3.16 µM, first compound 0.01 µM): 0.06% | viability, T/C [31]: 0.26% | viability, T/C [32]: 0.88% | viability, T/C (second compound 10 µM, first compound 0.000316 µM): 0.11% | viability, T/C (second compound 10 µM, first compound 0.001 µM): 0.27% | viability, T/C (second compound 10 µM, first compound 0.00316 µM): 0.25% | viability, T/C (second compound 10 µM, first compound 0.01 µM): 0.1% | viability, T/C [37]: 0.21% | viability, T/C [38]: 0.19%
